Patent US10273305B2, “Bispecific CXCR4-CD4 polypeptides with potent anti-HIV activity” (Ablynx N.V., priority 2015, dated 2019)
pIC50: −log10 of the molar value. Several values for one entry are separate records, joined by “and”; a condition that tells them apart may be missing. Equal values may be shown once. Read-outs that look alike come from different tables or passages of the source.

Assays:
[1] = test system: HIV-1 NL4.3 3F11-resistant virus; assay: microbe, parasite or virus in culture; format: cell-based
[2] = test system: dual-tropic (R5/X4) HIV-1 strain HE; assay: microbe, parasite or virus in culture; conditions: Human immunodeficiency virus 1, MT4, read-out: IC50 MT-4 HE R5/X4 n = 3
NL4.3 3F11 res = assay: microbe, parasite or virus in culture; format: cell-based, HIV-1; conditions: Human immunodeficiency virus 1, TZM-bl, read-out: IC50 TZM-bl X4 NL4.3 3F11 res n = 3
[3] = test system: CXCR4-using (X4) HIV-1 clone NL4.3; assay: microbe, parasite or virus in culture; format: cell-based
[4] = test system: dual-tropic R5/X4 HIV-1 HE; assay: HIV-1 HE infection of PBMCs, p24; format: cell-based; conditions: Human immunodeficiency virus 1, PBMC, read-out: IC50 PBMC HE R5/X4 n = 9
HIV-1 NL4.3 (X4) = assay: HIV-1 NL4.3 infection of U87 cells; conditions: Human immunodeficiency virus 1, U-87 MG, read-out: IC50 U87 + NL 4.3 (X4) n = 3
AMD3100 resistant virus = assay: microbe, parasite or virus in culture; format: cell-based, HIV-1; conditions: Human immunodeficiency virus 1, MT4, read-out: IC50 MT-4 AMD-3100 res.
[5] = test system: HIV-1 X4 UG270 clinical isolate (clade D); assay: HIV-1 UG270 infection of PBMCs, p24; format: cell-based; conditions: Human immunodeficiency virus 1; PBMC, average 2 donors
[6] = test system: CXCL-12 res. HIV-1 NL4.3 variant; assay: microbe, parasite or virus in culture; format: cell-based; conditions: Human immunodeficiency virus 1, MT4, read-out: IC50 MT-4 CXCL-12 res.
NL4.3 281F12 res = assay: microbe, parasite or virus in culture; format: cell-based, HIV-1; conditions: Human immunodeficiency virus 1, TZM-bl, read-out: IC50 TZM-bl X4 NL4.3 281F12 res n = 3
[7] = test system: HIV-1 CM237 clinical isolate (clade B); assay: HIV-1 CM237 infection of PBMCs, p24; format: cell-based; conditions: Human immunodeficiency virus 1; PBMC, average 2 donors
HIV-1 X4 NL4.3 strain = assay: HIV-1 NL4.3 infection of PHA-stimulated PBMCs, p24 Ag ELISA; format: cell-based
[8] = test system: HIV-1 CI#17 clinical isolate (clade B); assay: HIV-1 CI#17 infection of PBMCs, p24; format: cell-based; conditions: Human immunodeficiency virus 1; PBMC, average 2 donors
NL4.3 281F12 res. = assay: microbe, parasite or virus in culture; format: cell-based, HIV-1; conditions: Human immunodeficiency virus 1, PBMC, read-out: IC50 PBMC NL4.3 281F12 res. n = 2
[9] = test system: HIV-1 NL4.3 281F12-resistant virus; assay: microbe, parasite or virus in culture; format: cell-based
X4 HIV-1 NL4.3 WT = assay: TZM-bl luciferase assay, NL4.3 WT; format: cell-based; conditions: Human immunodeficiency virus 1, TZM-bl, read-out: IC50 TZM-bl X4 NL4.3 WT n = 4
[10] = test system: dual-tropic (R5/X4) HIV-2 ROD strain; assay: microbe, parasite or virus in culture; conditions: Human immunodeficiency virus 2, MT4, read-out: IC50 MT-4 HIV-2 ROD R5/X4 n = 3
HUT-78/HIV1 IIIb = assay: HIV-1-mediated cell-cell fusion, HUT-78/IIIb with SupT1 cells; conditions: Human immunodeficiency virus 1, IIIB, read-out: IC50 syncytia formation SupT1 + HUT-78/IIIb n = 3
NL4.3 3F11 res. = assay: microbe, parasite or virus in culture; format: cell-based, HIV-1; conditions: Human immunodeficiency virus 1, PBMC, read-out: IC50 PBMC NL4.3 3F11 res. n = 2
HUT-78/HIV-1 NL4.3 = assay: HIV-1-mediated cell-cell fusion, HUT-78/NL4.3 with SupT1 cells

## c1cc(CN2CCCNCCNCCCNCC2)ccc1CN1CCCNCCNCCCNCC1 [AMD3100, plerixafor]
[1]; Human immunodeficiency virus 1, MT4, read-out: IC50 MT-4 3F11 res.
  pIC50: 7.73
[1]; Human immunodeficiency virus 1, MT4, read-out: IC50 against HIV-1 NL4.3 3F11res virus
  IC50: 18 nM and 0.014 µg/mL
[2]
  pIC50: 8.41
NL4.3 3F11 res
  pIC50: 6.04
[3]; Human immunodeficiency virus 1, MT4, read-out: IC50 MT-4 + NL 4.3 (X4) n = 3
  pIC50: 8.32
[3]; Human immunodeficiency virus 1, MT4, read-out: IC50 MT-4 NL4.3 X4 n = 3
  pIC50: 8.37
[3]; Human immunodeficiency virus 1, MT4, read-out: IC50 MT-4 NL4.3 wt
  pIC50: 8.37
[3]; Human immunodeficiency virus 1, MT4, read-out: IC50 X4 NL4.3 strain in MT-4 cells
  pIC50: 8.20
[4]
  pIC50: 7.59
HIV-1 NL4.3 (X4)
  pIC50: 8.00
AMD3100 resistant virus
  pIC50: 6.39
[5]
  pIC50: 7.80
  IC90: 41 nM
[6]
  pIC50: 7.30
NL4.3 281F12 res
  pIC50: 5.31
[7]
  pIC50: 8.00
  IC90: 24 nM
HIV-1 X4 NL4.3 strain; Human immunodeficiency virus 1, PBMC, read-out: IC50 PBMC + NL 4.3 (X4) n = 3, Table 8.1.1
  pIC50: 8.35
HIV-1 X4 NL4.3 strain; Human immunodeficiency virus 1, PBMC, read-out: IC50 PBMC NL4.3 WT n = 10, Table 8.3
  pIC50: 8.35
HIV-1 X4 NL4.3 strain; Human immunodeficiency virus 1, PBMC, read-out: IC50 PBMC NL4.3 X4 n = 10, Table 8.1.2
  pIC50: 8.48
HIV-1 X4 NL4.3 strain; Human immunodeficiency virus 1, PBMC, read-out: IC50 HIV-1 NL4.3 in PBMC
  pIC50: 8.48
HIV-1 X4 NL4.3 strain; Human immunodeficiency virus 1, PBMC, average 2 donors
  IC90: 42 nM
HIV-1 X4 NL4.3 strain; Human immunodeficiency virus 1, PBMC, average 2 donors, read-out: IC50 NL4.3 X4
  pIC50: 7.89
[8]
  pIC50: 7.66
  IC90: 47 nM
NL4.3 281F12 res.
  pIC50: 7.24
[9]; Human immunodeficiency virus 1, MT4, read-out: IC50 MT-4 281F12 res.
  pIC50: 6.40
[9]; Human immunodeficiency virus 1, MT4, read-out: IC50 against HIV-1 NL4.3 281F12res virus
  IC50: 400 nM and 0.317 µg/mL
X4 HIV-1 NL4.3 WT
  pIC50: 6.39
[10]
  pIC50: 7.68
HUT-78/HIV1 IIIb
  pIC50: 4.66
NL4.3 3F11 res.
  pIC50: 7.70
HUT-78/HIV-1 NL4.3; Human immunodeficiency virus 1, HuT78, read-out: IC50 cell-cell fusion
  pIC50: 5.96
HUT-78/HIV-1 NL4.3; Human immunodeficiency virus 1, read-out: IC50 syncytia formation SupT1 + HUT-78/NL4.3 n = 4
  pIC50: 5.95
